The NIST ThermoML archive (doi:10.1016/j.jct.2004.11.009)
Numbers after ± are expanded uncertainties.

How the values were obtained:
[1] = 101.33 kPa, Liquid
[2] = xn = mol fraction of the nth substance listed; conditions: 101.33 kPa, Liquid, x2 = 0

Cc1cccnc1 [3-methylpyridine]
mass density ([1]; 293.15 K): 956 ± 0.6 kg/m3 | viscosity ([1]; 293.15 K): 0.9459 ± 0.016 mPa·s | mass density ([1]; 303.15 K): 946.6 ± 0.6 kg/m3 | viscosity ([1]; 303.15 K): 0.8318 ± 0.014 mPa·s | mass density ([1]; 313.15 K): 937.7 ± 0.6 kg/m3 | viscosity ([1]; 313.15 K): 0.7352 ± 0.012 mPa·s | mass density ([1]; 323.15 K): 928.3 ± 0.7 kg/m3 | viscosity ([1]; 323.15 K): 0.6565 ± 0.011 mPa·s | mass density ([1]; 333.15 K): 919.3 ± 0.7 kg/m3 | viscosity ([1]; 333.15 K): 0.5936 ± 0.01 mPa·s | mass density ([1]; 343.15 K): 910.3 ± 0.7 kg/m3 | viscosity ([1]; 343.15 K): 0.539 ± 0.0094 mPa·s

O [water] + Cc1cccnc1
viscosity ([2]; 293.15 K): 1.002 ± 0.017 mPa·s | viscosity ([2]; 303.15 K): 0.7977 ± 0.013 mPa·s | viscosity ([2]; 313.15 K): 0.6532 ± 0.011 mPa·s | mass density ([2]; 323.15 K): 988 ± 0.7 kg/m3 | viscosity ([2]; 323.15 K): 0.547 ± 0.0096 mPa·s | mass density ([2]; 333.15 K): 983.2 ± 0.8 kg/m3 | viscosity ([2]; 333.15 K): 0.4665 ± 0.0083 mPa·s | mass density ([2]; 343.15 K): 977.8 ± 0.8 kg/m3 | viscosity ([2]; 343.15 K): 0.404 ± 0.0073 mPa·s
